Experimental data published in patent US9103830B2, “Enzyme sensors, methods for preparing and using such sensors, and methods of detecting protease activity” (Georgia State University Research Foundation, Inc., priority 2006, dated 2015).
“Also recorded” adds a separate entry of the source. Blank lines part the entries; values can stand above or below the molecule they belong to.

Tests used:
trypsin [1] = molecular target: T1, trypsin (Bos taurus, UniProt P00760); assay: Cleavage status after trypsin digestion (SDS-PAGE, MALDI-MS); format: biochemical, bovine; settings: up to 40 hours
T1 construct: Active trypsin is produced only after trypsinogen reaches the small intestine through the common bile duct and is cleaved by enterokinase; purchased Sigma, St. Louis; host or cells: bovine pancreas
T1 sequence (P00760 24-246): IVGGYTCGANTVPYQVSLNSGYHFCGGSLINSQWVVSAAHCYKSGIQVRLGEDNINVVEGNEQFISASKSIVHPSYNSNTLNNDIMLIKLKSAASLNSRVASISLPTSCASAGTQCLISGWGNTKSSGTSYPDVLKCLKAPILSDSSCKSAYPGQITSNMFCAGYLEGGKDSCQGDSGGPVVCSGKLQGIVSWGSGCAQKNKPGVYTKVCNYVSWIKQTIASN
Protocol: To examine the cleavage status of the protease sensors (EGFP-T/C1, and EGFP-wt) at different time points, 20 μl of reaction mixtures of 15 μM EGFP variants during trypsin digestion were removed and immediately added SDS sample buffer and boiled to stop the reaction for monitoring by SDS-PAGE at different digestion time intervals (0 min, 5 min, 10 min, 30 min, 60 min, 2 h, 6 h, and 24 h). The samples were loaded on 15% SDS-PAGE to examine the cleavage status of three EGFP variants.
Similarly, after digestion with trypsin, the cleavage status was confirmed using matrix assisted laser desorption/ionization-mass spectrometry (MALDI-MS).
In order to verify the cleavage status of EGFP-based trypsin sensors, the samples during trypsin digestion at various digestion time intervals were examined with 15% SDS-PAGE and MALDI mass spectrometry.

[2] = tested on: trypsin activation in MIA PaCa-2 cells; assay: Fluorescence imaging of MIA PaCa-2 cells transfected with trypsin sensor, caerulein activation; format: cell-based; settings: zymogen activation by 10 nM caerulein
Protocol: (§1) MIA PaCa-2 cells were grown on glass coverslips (0.5-1.0×10^6 cells/dish) in 35 mm culture dishes in Dulbecco's Modified Eagles Medium (DMEM) (Sigma Chemical Co., St. Louis, Mo.) with 44 mM NaHCO3, pH 7.2, and supplemented with 10% (v/v) fetal bovine serum (FBS), 100 U/ml penicillin and 0.1 mg/ml streptomycin (Pen/Strep) at 37° C. with 5% CO2 in a humidified incubation chamber. After the cells were seeded and grown overnight, EGFP-T/C1 was transfected into MIA PaCa-2 cells with lipofectamine-2000 (Invitrogen Life Technologies) and serum-free Opti-MEM (Gibco Invitrogen Corporation) according to the manufacturer's instructions. […] The cells were then grown 24 to 48 hours in a humidified chamber with 5% CO2 at 30° C. before fluorescence microscope imaging. […]
MIA PaCa-2 cells with transfected EGFP-T/C1 were imaged following trypsin sensor expression for 24 or 48 hours. […] The ratiometric change between fluorescence emission for excitation at 398 nm and 488 nm was used to detect trypsin activity at different time intervals in the living cells. Fluorescence for both excitation wavelengths is expected to decrease at 398 nm and produce a corresponding increase at 488 nm during the course of reaction. The fluorescence intensity of the cells was normalized with equation 2: […]
The fluorescence ratiometric change (R) is expressed by equation 3: […]

[3] = tested on: caspase-3 activation in MIA PaCa-2 cells; assay: Fluorescence imaging of MIA PaCa-2 cells transfected with caspase-3 sensor, STS induction; format: cell-based
Source text: After induction, there was obvious increase in fluorescence of EGFP-EF172cas2 at 398 nm excitation and significant decrease in fluorescence at 488 nm excitation in real time, which results in an increased fluorescence ratio change between 398 and 488 nm, and a corresponding increase in sensitivity for determining the caspase-3 activity in living cells, and an increase in the dynamic range up to 4 for the caspase-3 activity determination. Although there was a slight increase and then decrease in fluorescence of EGFP-wt at both wavelengths after STS induction, the relative fluorescence ratio change was negligible. A possible reason for this would be a change in the cell shape to which increases the fluorescence slightly during the apoptosis. […] Apoptosis is observed in MIA PaCa-2 is a little earlier and stronger than in HeLa cells. There is a huge fluorescence change with excitation at 398 nm in MIA PaCa-2 cells transfected with EGFP-EF172cas2. The cause of this is reasoned to be due to intrinsic high-level caspase-3 activity in MIA PaCa-2 cells and its activity is enhanced by STS induction.

[4] = tested on: caspase-3 activation in Hela cells; assay: Fluorescence imaging of Hela cells transfected with caspase-3 sensor, STS induction; format: cell-based, human
Protocol: as §1, with “Hela” for “MIA PaCa-2”, “calf” for “bovine”, “(FCS),” for “(FBS),”, “the EGFP-based caspase-3 sensor plasmid” for “EGFP-T/C1”
Hela cells with transfected EGFP-based caspase-3 sensor were imaged following its expression for 24 or 48 hours. […] Fluorescence imaging of Hela cells with EGFP-wt transfection was used as the control.
The ratiometric change between fluorescence emission for excitation at 398 nm and 488 nm was used to detect caspase-3 activation and inhibition at different time intervals in living cells. Fluorescence for both excitation wavelengths is expected to decrease at 398 nm and produce a corresponding increase at 488 nm during the course of the reaction. The fluorescence intensity of the cells was normalized with equation 2: […]

trypsin [5] = molecular target: T1, trypsin; assay: Inhibition by leupeptin of trypsin digestion of EGFP-T/C1; format: biochemical, bovine
Protocol: In order to examine inhibition effect of leupeptin (Sigma, St. Louis), a trypsin inhibitor, leupeptin at various concentrations (0, 12.5, 25, 50 and 100 nM) was mixed with EGFP-T/C1 and subsequently digested by trypsin at a final concentration of 0.005 μM. The kinetic studies of EGFP-T/C1 with various concentrations were performed at each inhibitor concentration level and the absorbance change at 490 nm was mintored using a time course model. The double reciprocal of initial rates and trypsin sensor concentrations was performed to obtain the plot for confirming inhibition type and calculation of Ki value.
In order to ensure that our developed sensor is able to directly monitor the catalytic step of the enzymatic reaction, we then examined the inhibition effect of leupeptin on trypsin during the digestion of EGFP-T/C1 with various leupeptin concentrations. The rate of the signal change due to cleavage decreases with increasing leupeptin concentrations (FIG. 6A).

trypsin [6] = molecular target: T1, trypsin; assay: Steady-state kinetics of trypsin digestion of EGFP-based trypsin sensors and BAPNA (absorbance at 490 nm, Michaelis-Menten fit); format: biochemical, bovine; settings: Table 2; 10 mM Tris, 20 mM CaCl2, pH 7.4
Protocol: Initial rates of trypsin digestion reaction for EGFP-T/C1 with various concentrations were measured using a time-course model to monitor the change of absorbance at 490 nm for 10 min on a UV-1700 spectrometer (Shimadzu, Japan), where the initial rate was equivalent to the resulting slope of absorbance increase.
In order to investigate the kinetic change and to determine the steady-state kinetic parameters kcat, Km, and kcat/Km for hydrolysis of EGFP-based trypsin sensors upon the action of trypsin, initial rates were measured at various EGFP-based trypsin sensor concentrations. The change of absorbance was monitored at 490 nm for 10 min using UV-1700 spectrometer (Shimadzu, Japan) in time-course model and the slope of absorbance increase was determined as the initial rate data. The data were fitted to the Michaelis-Menten equation by nonlinear regression using KaleidaGraph 3.5 software (Synergy software) to obtain the Michaelis constants (Km), turnover numbers (kcat) and specificity constants (kcat/Km).
In order to examine buffer pH effect on trypsin cleavage, kinetic parameters of our designed trypsin sensors were evaluated during trypsin digestion in PIPES buffer (20 mM PIPES, 20 mM CaCl2, pH 6.7) and Tris buffer (10 mM Tris, 20 mM CaCl2, pH 7.4 and pH 8.0), respectively. […]

cleavage status upon incubation with trypsin (trypsin [1]): remains intact
Molecule: EGFP-wt: enhanced green fluorescent protein, Sequence ID. No. 119; used as the control
ratiometric emission change (510 nm emission, excitation 488/398 nm) [2]: remained unchanged
fluorescence ratio change [3]: maintains a gradient increase
ratio (R398/488) of fluorescence signal change ([4]; Hela cells, 1 μM STS induction, emission 510 nm): no apparent ratiometric change; also recorded: negligible

Molecule: DEVD-CHO
ratio (R398/488) of fluorescence of caspase-3 sensor cells incubated with caspase-3 inhibitor ([4]; Hela cells transfected with EGFP-cas3-1e, inhibitor overnight, then 1 μM STS): no change

Molecule: CC(=O)N[C@@H](CC(C)C)C(=O)N[C@@H](CC(C)C)C(=O)N[C@H](C=O)CCCNC(=N)N [leupeptin]
inhibition type (trypsin [5]; double reciprocal plot, Enzfitter fit): competitive inhibition
Ki (trypsin [5]; substrate EGFP-T/C1, 0.005 μM trypsin, 10 mM Tris, 20 mM CaCl2, pH 7.4): 0.0311 ± 0.0023 µM

kcat (trypsin [6]): 1.33 ± 0.17 s⁻¹
Molecule: Cl.N=C(N)NCCCC(NC(=O)c1ccccc1)C(=O)Nc1ccc([N+](=O)[O-])cc1 (racemic) [BAPNA, benzoyl-DL-arginine-4-nitroanilide hydrochloride]
